US20070117743A1, “New antitumoral compounds” (priority 2003, published 2007)
Where a SMILES comes first, the peptide text is derived from it. Bridges are numbered along the chain shown (N, C = ends). [ ]: non-standard residue; d: D form. The star is where a group is joined. d(aIle) = CC[C@H](C)[C@@H](N)C(=O)O; d(aThr) = C[C@@H](O)[C@@H](N)C(=O)O; Hexanoyl(5-Me) = CC(C)CCCC(=O)*; Orn = NCCC[C@H](N)C(=O)O; Dhb = C/C=C(\N)C(=O)O

Tests used:
Assay type in all cases: cell-based, human
Details in all cases: 48 hours exposure
IGROV-ET = experiment: SRB colorimetric assay of cell growth and viability, IGROV-ET
DU-145 = experiment: SRB colorimetric assay of cell growth and viability, DU-145
SK-MEL-28 = experiment: SRB colorimetric assay of cell growth and viability, SK-MEL-28
HT-29 = experiment: SRB colorimetric assay of cell growth and viability, HT-29
A-549 = experiment: SRB colorimetric assay of cell growth and viability, A-549
LoVo-Dox = experiment: SRB colorimetric assay of cell growth and viability, LoVo-Dox
In short: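 Absorbance at 490 nm of Tris-solubilized sulforhodamine B gives the read-out after cells are fixed with cold 50% TCA for 60 min at 4° C. Compound exposure lasts 48 hours over 10 to 10^−8 μg/mL. Growth inhibition, total growth inhibition and lethal concentration are calculated from triplicate wells.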

HeLa = experiment: SRB colorimetric assay of cell growth and viability, HeLa
LoVo = experiment: SRB colorimetric assay of cell growth and viability, LoVo
IGROV-1 = experiment: SRB colorimetric assay of cell growth and viability, IGROV-1
K-562 = experiment: SRB colorimetric assay of cell growth and viability, K-562
HeLa-APL = experiment: SRB colorimetric assay of cell growth and viability, HeLa-APL
PANC-1 = experiment: SRB colorimetric assay of cell growth and viability, PANC-1

C/C=C1\NC(=O)[C@H](Cc2ccccc2)NC(=O)[C@@H](C(C)C)NC(=O)[C@@H]([C@@H](C)CC)NC(=O)[C@H](NC(=O)[C@H](NC(=O)[C@H](CCCN)NC(=O)[C@H]2CCCN2C(=O)[C@H](NC(=O)[C@@H](NC(=O)[C@@H]2CCCN2C(=O)CCCC(C)C)C(C)C)C(C)C)[C@@H](C)CC)[C@@H](C)OC(=O)[C@H](C(C)C)NC1=O [Compound 55, [Pro^12, noD-Val^13]-KF] ({Hexanoyl(5-Me)}-PV[dV][dP][Orn][d(aIle)][d(aThr)][d(aIle)][dV]F[Dhb]V; ester 7-C)
GI50 (IGROV-ET): 7.27 µM
TGI IGROV-ET (IGROV-ET): 7.27E−06 Molar
CC50 (IGROV-ET; read-out: LC50 IGROV-ET): 7.27 µM
GI50 (DU-145): 7.27 µM
LC50 (concentration causing 50% net cell kill) (DU-145): 7.27 µM
TGI DU-145 (DU-145): 7.27E−06 Molar
GI50 (SK-MEL-28): 7.27 µM
TGI MEL-28 (SK-MEL-28): 7.27E−06 Molar
CC50 (SK-MEL-28; read-out: LC50 MEL-28): 7.27 µM
TGI HT-29 (HT-29): 7.27E−06 Molar
GI50 (HT-29; read-out: GI50 HT-29): 7.27 µM
CC50 (HT-29; read-out: LC50 HT-29): 7.27 µM
TGI A-549 (A-549): 7.27E−06 Molar
GI50 (A-549; read-out: GI50 A-549): 7.27 µM
CC50 (A-549; read-out: LC50 A-549): 7.27 µM
GI50 (LoVo-Dox): 7.27 µM
TGI LOVO-DOX (LoVo-Dox): 7.27E−06 Molar
CC50 (LoVo-Dox; read-out: LC50 LOVO-DOX): 7.27 µM
GI50 (HeLa): 7.27 µM
TGI HELA (HeLa): 7.27E−06 Molar
CC50 (HeLa; read-out: LC50 HELA): 7.27 µM
GI50 (LoVo): 7.27 µM
TGI LOVO (LoVo): 7.27E−06 Molar
CC50 (LoVo; read-out: LC50 LOVO): 7.27 µM
GI50 (IGROV-1): 7.27 µM
LC50 (concentration causing 50% net cell killing) (IGROV-1): 7.27 µM
TGI IGROV (IGROV-1): 7.27E−06 Molar
GI50 (K-562): 7.27 µM
TGI K-562 (K-562): 7.27E−06 Molar
CC50 (K-562; read-out: LC50 K-562): 7.27 µM
GI50 (HeLa-APL): 7.27 µM
TGI HELA-APL (HeLa-APL): 7.27E−06 Molar
CC50 (HeLa-APL; read-out: LC50 HELA-APL): 7.27 µM
GI50 (PANC-1): 7.27 µM
TGI PANC-1 (PANC-1): 7.27E−06 Molar
CC50 (PANC-1; read-out: LC50 PANC-1): 7.27 µM
